Values quoted from earlier work as cited in patent publication US6800435B2, “Insect sodium channels from insecticide-susceptible and insecticide-resistant house flies” (Cornell Research Foundation, Inc., priority 1996, dated 2004).

Test system: resistant (538ge) house fly strain
Conditions: kdr trait, adult flies, Sawicki 1978

Clc1ccc(C(c2ccc(Cl)cc2)C(Cl)(Cl)Cl)cc1 [DDT, 1,1-bis-(4-chlorophenyl)-2,2,2-trichloroethane]
doses required to kill approximately 50% of the treated individuals: approximately 0.5 μg per adult fly
